Results as given in ChEMBL document CHEMBL1201862, “PubChem BioAssay data set” (2004).
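Results reflect a 48-hour exposure of cells in 96-well plates to compound at five concentrations. Here, GI50 denotes the concentration required for 50% inhibition of growth.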 Calls of active or inactive are those of the source. Rule as the data show it: active = GI50 up to about 1.1 µM and inactive = higher.

How the values were obtained:
Assay in all cases: NCI tumour cell line growth inhibition, 48 h
MDA-N = test system: MDA-N
MCF7 = test system: MCF7
SF-539 = test system: SF-539
A498 = test system: A498
HCC 2998 = test system: HCC 2998
SK-MEL-2 = test system: SK-MEL-2
SF-295 = test system: SF-295
UO-31 = test system: UO-31
UACC-62 = test system: UACC-62
COLO 205 = test system: COLO 205
MDA-MB-231 = test system: MDA-MB-231
NCI-H522 = test system: NCI-H522
MDA-MB-435 = test system: MDA-MB-435
SW-620 = test system: SW-620
RXF 393 = test system: RXF 393
SK-MEL-28 = test system: SK-MEL-28
DU-145 = test system: DU-145
PC-3 = test system: PC-3
MOLT-4 = test system: MOLT-4
SN12C = test system: SN12C

| Structure (SMILES) | GI50 (MDA-N) | GI50 (MCF7) | GI50 (SF-539) | GI50 (A498) | GI50 (HCC 2998) | GI50 (SK-MEL-2) | GI50 (SF-295) | GI50 (UO-31) | GI50 (UACC-62) | GI50 (COLO 205) | GI50 (MDA-MB-231) | GI50 (NCI-H522) | GI50 (MDA-MB-435) | GI50 (SW-620) | GI50 (RXF 393) | GI50 (SK-MEL-28) | GI50 (DU-145) | GI50 (PC-3) | GI50 (MOLT-4) | GI50 (SN12C) |
| --- | --- | --- | --- | --- | --- | --- | --- | --- | --- | --- | --- | --- | --- | --- | --- | --- | --- | --- | --- | --- |
| CN(C)CCNC(=O)c1cccc2nc3cccc(F)c3nc12 | 1.46 µM (inactive) | 1.48 µM (inactive) | 1.86 µM (inactive) | 1.91 µM (inactive) | 1.49 µM (inactive) | 2.13 µM (inactive) | 1.52 µM (inactive) | 0.883 µM (active) | 2.88 µM (inactive) | 0.317 µM (active) | 1.32 µM (inactive) | 1.05 µM (active) | 1.56 µM (inactive) | 0.65 µM (active) | 1.54 µM (inactive) | 3.01 µM (inactive) | 2.47 µM (inactive) | 1.38 µM (inactive) | 0.366 µM (active) | 1.02 µM (active) |
| N#Cc1ccc(-n2c3ccccc3c3ccc4c(c32)C(=O)C=CC4=O)cc1 | 4.99 µM (inactive) | 2.52 µM (inactive) | 3.94 µM (inactive) | 1.85 µM (inactive) | 8.43 µM (inactive) | 8.87 µM (inactive) | 14 µM (inactive) | 1.45 µM (inactive) | 6.25 µM (inactive) | 2.79 µM (inactive) | 2.51 µM (inactive) | 0.11 µM (active) | 2.01 µM (inactive) | 1.92 µM (inactive) | 2.39 µM (inactive) | 2.88 µM (inactive) | 3.6 µM (inactive) | 3.06 µM (inactive) | 0.348 µM (active) | 3.65 µM (inactive) |
| CCOC1OC(CO[Si](C)(C)C(C)(C)C)C(O)CC1n1ccc(=O)[nH]c1=O (stereo not given) | > 100 µM (inactive) | 31.5 µM (inactive) | 75.7 µM (inactive) | > 100 µM (inactive) | > 100 µM (inactive) | > 100 µM (inactive) | > 100 µM (inactive) | > 100 µM (inactive) | > 100 µM (inactive) | 80.5 µM (inactive) | 67 µM (inactive) | 20.6 µM (inactive) | > 100 µM (inactive) | 23.2 µM (inactive) | 30.8 µM (inactive) | 61.4 µM (inactive) | > 100 µM (inactive) | 64.7 µM (inactive) | 27.7 µM (inactive) | > 100 µM (inactive) |
| N/C(=N\NC(=O)c1nc2ccccc2s1)c1ccccn1 | 11.7 µM (inactive) | 4.39 µM (inactive) | 3.59 µM (inactive) | 8.34 µM (inactive) | 8.17 µM (inactive) | 19.5 µM (inactive) | 3.83 µM (inactive) | 2.26 µM (inactive) | 3.95 µM (inactive) | 4.73 µM (inactive) | 14 µM (inactive) | 13.8 µM (inactive) | 7.1 µM (inactive) | 6.82 µM (inactive) | 7.96 µM (inactive) | 43.2 µM (inactive) | 4.27 µM (inactive) | 9.31 µM (inactive) | 1.29 µM (inactive) | 1.61 µM (inactive) |
| Oc1c(CN2CCCC2)ccc2cccnc12 | 39.4 µM (inactive) | 29.6 µM (inactive) | 24 µM (inactive) | 29.9 µM (inactive) | > 47.4 µM (inactive) | > 47 µM (inactive) | 13 µM (inactive) | 3.44 µM (inactive) | 26.2 µM (inactive) | 25.9 µM (inactive) | 51.3 µM (inactive) | 27.6 µM (inactive) | 38.9 µM (inactive) | 24.2 µM (inactive) | > 67.9 µM (inactive) | 22.5 µM (inactive) | 23.2 µM (inactive) | > 39.5 µM (inactive) | 20.1 µM (inactive) | 19.3 µM (inactive) |
